Test results: publication PMC10035947, “Development of novel anilinoquinazoline-based carboxylic acids as non-classical carbonic anhydrase IX and XII inhibitors” (Journal of Enzyme Inhibition and Medicinal Chemistry, 2023)

Tests used:
Assay in all cases: NCI SRB assay
786-0 = type: cell-based, human
BT-549 = type: cell-based, human
NCI-H23 = type: cell-based, human
NCI-H460 = type: cell-based, human
U251 = type: cell-based, human
A549/ATCC = type: cell-based, human; settings: A549/ATCC
SNB-19 = type: cell-based, human
MOLT-4 = type: cell-based, human
SK-MEL-2 = type: cell-based, human
OVCAR-8 = type: cell-based, human
NCI/ADR-RES = type: cell-based, human
OVCAR-5 = type: cell-based, human
HCT-116 = type: cell-based, human
SF-268 = type: cell-based, human
SK-MEL-28 = type: cell-based, human
MDA-MB-435 = type: cell-based
K-562 = type: cell-based, human
NCI-H322M = type: cell-based, human
LOX IMVI = type: cell-based, human
RPMI-8226 = type: cell-based, human
HS 578 T = type: cell-based, human
ACHN = type: cell-based, human
COLO 205 = type: cell-based, human
MALME-3M = type: cell-based, human
SW-620 = type: cell-based, human
A498 = type: cell-based, human
SF-539 = type: cell-based, human
HCC-2998 = type: cell-based, human
HOP-92 = type: cell-based, human
UACC-257 = type: cell-based, human
OVCAR-4 = type: cell-based, human
SN12C = type: cell-based, human; settings: SN12C

For `Cc1ccc(-c2nc(Nc3cccc(C(=O)O)c3)c3ccccc3n2)cc1` [7b, 3-((2-(p-Tolyl)quinazolin-4-yl)amino)benzoic acid], the GI% (786-0; 786-0, 10 μM) was 24%, the “Growth Percent” value (786-0; 786-0, 1.00E-5 Molar) was 76.25% and the GI% (BT-549; BT-549, 10 μM) was “– (Only GI% higher than 20% are shown)”. The “Growth Percent” value (BT-549; BT-549, 1.00E-5 Molar) was 101.46%, the GI% (NCI-H23; NCI-H23, 10 μM) was “– (Only GI% higher than 20% are shown)” and the “Growth Percent” value (NCI-H23; NCI-H23, 1.00E-5 Molar) was 95.42%. The GI% (NCI-H460; NCI-H460, 10 μM) was “– (Only GI% higher than 20% are shown)”, the “Growth Percent” value (NCI-H460; NCI-H460, 1.00E-5 Molar) was 97.53% and the GI% (U251; U251, 10 μM) was 21%. For the same molecule, the “Growth Percent” value (U251; U251, 1.00E-5 Molar) was 78.70%, the GI% (A549/ATCC; 10 μM) was “– (Only GI% higher than 20% are shown)” and the “Growth Percent” value (A549/ATCC; 1.00E-5 Molar) was 90.82%. For the same molecule, the GI% (SNB-19; SNB-19, 10 μM) was 28%, the “Growth Percent” value (SNB-19; SNB-19, 1.00E-5 Molar) was 71.76% and the GI% (MOLT-4; MOLT-4, 10 μM) was “– (Only GI% higher than 20% are shown)”. The “Growth Percent” value (MOLT-4; MOLT-4, 1.00E-5 Molar) was 89.24%, the GI% (SK-MEL-2; SK-MEL-2, 10 μM) was “– (Only GI% higher than 20% are shown)” and the “Growth Percent” value (SK-MEL-2; SK-MEL-2, 1.00E-5 Molar) was 112.04%. For the same molecule, the GI% (OVCAR-8; OVCAR-8, 10 μM) was “– (Only GI% higher than 20% are shown)”, the “Growth Percent” value (OVCAR-8; OVCAR-8, 1.00E-5 Molar) was 91.56% and the GI% (NCI/ADR-RES; 10 μM) was “– (Only GI% higher than 20% are shown)”. For the same molecule, the “Growth Percent” value (NCI/ADR-RES; 1.00E-5 Molar) was 89.49%, the GI% (OVCAR-5; OVCAR-5, 10 μM) was “– (Only GI% higher than 20% are shown)” and the “Growth Percent” value (OVCAR-5; OVCAR-5, 1.00E-5 Molar) was 107.97%. The GI% (HCT-116; HCT-116, 10 μM) was 26%, the “Growth Percent” value (HCT-116; HCT-116, 1.00E-5 Molar) was 74.42% and the GI% (SF-268; SF-268, 10 μM) was 31%. For the same molecule, the “Growth Percent” value (SF-268; SF-268, 1.00E-5 Molar) was 69.32%, the GI% (SK-MEL-28; SK-MEL-28, 10 μM) was “– (Only GI% higher than 20% are shown)” and the “Growth Percent” value (SK-MEL-28; SK-MEL-28, 1.00E-5 Molar) was 97.02%. For the same molecule, the GI% (MDA-MB-435; MDA-MB-435, 10 μM) was “– (Only GI% higher than 20% are shown)”, the “Growth Percent” value (MDA-MB-435; MDA-MB-435, 1.00E-5 Molar) was 100.82% and the GI% (K-562; K-562, 10 μM) was 20%. For the same molecule, the “Growth Percent” value (K-562; K-562, 1.00E-5 Molar) was 80.06%, the GI% (NCI-H322M; 10 μM) was “– (Only GI% higher than 20% are shown)” and the “Growth Percent” value (NCI-H322M; 1.00E-5 Molar) was 99.74%. The GI% (LOX IMVI; 10 μM) was “– (Only GI% higher than 20% are shown)”, the “Growth Percent” value (LOX IMVI; 1.00E-5 Molar) was 81.15% and the GI% (RPMI-8226; RPMI-8226, 10 μM) was 29%. For the same molecule, the “Growth Percent” value (RPMI-8226; RPMI-8226, 1.00E-5 Molar) was 70.78%, the GI% (HS 578 T; HS 578 T, 10 μM) was 34% and the “Growth Percent” value (HS 578 T; HS 578T, 1.00E-5 Molar) was 65.83%. The GI% (ACHN; 10 μM) was 24%, the “Growth Percent” value (ACHN; 1.00E-5 Molar) was 76.34% and the GI% (COLO 205; COLO 205, 10 μM) was “– (Only GI% higher than 20% are shown)”. For the same molecule, the “Growth Percent” value (COLO 205; COLO 205, 1.00E-5 Molar) was 124.60%, the GI% (MALME-3M; 10 μM) was “– (Only GI% higher than 20% are shown)” and the “Growth Percent” value (MALME-3M; 1.00E-5 Molar) was 96.44%. For the same molecule, the GI% (SW-620; SW-620, 10 μM) was “– (Only GI% higher than 20% are shown)”, the “Growth Percent” value (SW-620; SW-620, 1.00E-5 Molar) was 94.08% and the GI% (A498; A498, 10 μM) was “– (Only GI% higher than 20% are shown)”. The “Growth Percent” value (A498; A498, 1.00E-5 Molar) was 95.15%, the GI% (SF-539; SF-539, 10 μM) was 27% and the “Growth Percent” value (SF-539; SF-539, 1.00E-5 Molar) was 73.18%. For the same molecule, the GI% (HCC-2998; HCC-2998, 10 μM) was “– (Only GI% higher than 20% are shown)”, the “Growth Percent” value (HCC-2998; HCC-2998, 1.00E-5 Molar) was 94.40% and the GI% (HOP-92; HOP-92, 10 μM) was 29%. For the same molecule, the “Growth Percent” value (HOP-92; HOP-92, 1.00E-5 Molar) was 71.46%, the GI% (UACC-257; UACC-257, 10 μM) was “– (Only GI% higher than 20% are shown)” and the “Growth Percent” value (UACC-257; UACC-257, 1.00E-5 Molar) was 111.51%. For the same molecule, the GI% (OVCAR-4; OVCAR-4, 10 μM) was 23%, the “Growth Percent” value (OVCAR-4; OVCAR-4, 1.00E-5 Molar) was 77.91% and the GI% (SN12C; 10 μM) was 23%. For the same molecule, the “Growth Percent” value (SN12C; 1.00E-5 Molar) was 76.64%.
